The values that follow are results of earlier work, collected in US20060073224A1, “Method of preparing Dioscorea tincture and uses thereof” (Omni Research Technology, priority 2004, published 2006).

The conditions of this data set: purified crystalline powder.

As for `C[C@@H]1CC[C@@]2(OC1)O[C@H]1C[C@H]3[C@@H]4CC=C5C[C@@H](O)CC[C@]5(C)[C@H]4CC[C@]3(C)[C@H]1[C@@H]2C` [diosgenin], the insolubility in alcohol result was “about 0.2%”.
